The structures appear in SMILES notation. pIC50: −log10 of the molar value.

In one test the target is T1, Recombinant human cathepsin S (CatS) (Homo sapiens, UniProt P25774).
T1 construct: made in house
T1 sequence (P25774 115-331): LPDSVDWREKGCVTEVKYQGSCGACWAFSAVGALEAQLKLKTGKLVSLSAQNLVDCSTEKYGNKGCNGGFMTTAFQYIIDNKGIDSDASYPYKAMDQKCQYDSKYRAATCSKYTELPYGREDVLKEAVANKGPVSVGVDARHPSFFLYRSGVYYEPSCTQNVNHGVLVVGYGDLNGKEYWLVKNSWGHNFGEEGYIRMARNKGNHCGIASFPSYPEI
Nature of the test: Recombinant human cathepsin S (CatS) fluorogenic substrate inhibition assay.
Details: not given
It is filed as biochemical. As for the experimental part: Recombinant human cathepsin S (CatS) was expressed in the baculovirus system and purified in one step with a thiopropyl-sepharose column. […] The assay is run in 150 mM sodium acetate pH 5.0 containing 1.5 mM DTT and 150 mM NaCl. […] Measurements are taken every min for 20 min. The rate is calculated from the slope of the increase in fluorescence and the percent inhibition is calculated from this.
Take `CC(C)CC(=O)NCc1cc(-c2nn(CC(O)CN3CCC(N(C)C)C3)c3c2CN(S(C)(=O)=O)CC3)ccc1C(F)(F)F` (centres unmarked) [Example 249, N-(5-{1-[3-(3-Dimethylamino-pyrrolidin-1-yl)-2-hydroxy-propyl]-5-methanesulfonyl-4,5,6,7-tetrahydro-1H-pyrazolo[4,3-c]pyridin-3-yl}-2-trifluoromethyl-benzyl)-3-methyl-butyramide]: the negative logarithm of the IC50 (pIC50) (commonly the IC50 on a negative log10 scale, so that one unit is a factor of ten) was 6.35.

Still in this test, the particulars now being: average of results obtained; substrate Z-Valine-Valine-Arginine-AMC 10 μM, pH 5.0; read-out: CatS IC50.
For `O=C(NCc1cc(-c2nn(CC(O)CN3CCC4(CCNC4=O)CC3)c3c2CN(C(=O)CO)CC3)ccc1C(F)(F)F)c1ccc(F)cc1` (centres unmarked) [Example 8, 4-Fluoro-N-(5-{5-(2-hydroxy-acetyl)-1-[2-hydroxy-3-(1-oxo-2,8-diazaspiro[4.5]dec-8-yl)-propyl]-4,5,6,7-tetrahydro-1H-pyrazolo[4,3-c]pyridin-3-yl}-2-trifluoromethyl-benzyl)-benzamide], the pIC50 was 7.70.

On to `CS(=O)(=O)N1CCc2c(c(-c3ccc(C(F)(F)F)c(CNS(=O)(=O)c4ccc(F)cc4)c3)nn2CC(O)CN2CCCC2)C1` (centres unmarked) [Example 194, 4-Fluoro-N-{5-[1-(2-hydroxy-3-pyrrolidin-1-yl-propyl)-5-methanesulfonyl-4,5,6,7-tetrahydro-1H-pyrazolo[4,3-c]pyridin-3-yl]-2-trifluoromethyl-benzyl}-benzenesulfonamide], for which the pIC50 is 5.31.

With `CC(C)CC(=O)NCc1cc(-c2nn(CC(O)CN3CCC(C(C)(C)C)CC3)c3c2CN(S(C)(=O)=O)CC3)ccc1C(F)(F)F` (centres unmarked) [Example 289, N-(5-{1-[3-(4-tert-Butyl-piperidin-1-yl)-2-hydroxy-propyl]-5-methanesulfonyl-4,5,6,7-tetrahydro-1H-pyrazolo[4,3-c]pyridin-3-yl}-2-trifluoromethyl-benzyl)-3-methyl-butyramide], the pIC50 was 7.05.

For the compound `CN(C)C(=O)CCc1cc(-c2nn(CCCN3CCOCC3)c3c2CN(S(C)(=O)=O)CC3)ccc1Cl` [Example 295, 3-{2-Chloro-5-[5-methanesulfonyl-1-(3-morpholin-4-yl-propyl)-4,5,6,7-tetrahydro-1H-pyrazolo[4,3-c]pyridin-3-yl]-phenyl}-N,N-dimethyl-propionamide], the pIC50 was 5.31.

For `CC(=O)N1CCC(C(=O)NCc2cc(-c3nn(CC(O)CN4CCCC4)c4c3CN(S(C)(=O)=O)CC4)ccc2C(F)(F)F)CC1` (centres unmarked) [Example 242, 1-Acetyl-piperidine-4-carboxylic acid 5-[1-(2-hydroxy-3-pyrrolidin-1-yl-propyl)-5-methanesulfonyl-4,5,6,7-tetrahydro-1H-pyrazolo[4,3-c]pyridin-3-yl]-2-trifluoromethyl-benzylamide], the pIC50 is 5.99.

As to `CCOC(=O)C1CCN(CC(O)Cn2nc(-c3ccc(C(F)(F)F)c(CNC(=O)c4ccc(F)cc4)c3)c3c2CCN(S(C)(=O)=O)C3)CC1` (centres unmarked) [Example 103, 1-[3-(3-{3-[(4-Fluoro-benzoylamino)-methyl]-4-trifluoromethyl-phenyl}-5-methanesulfonyl-4,5,6,7-tetrahydro-pyrazolo[4,3-c]pyridin-1-yl)-2-hydroxy-propyl]-piperidine-4-carboxylic acid ethyl ester], the pIC50 is 7.52.

Turning to `CS(=O)(=O)N1CCc2c(c(-c3ccc(C(F)(F)F)c(CNC(=O)c4cc5ccccc5s4)c3)nn2CC(O)CN2CCC3(CCNC3=O)CC2)C1` (centres unmarked) [Example 157, Benzo[b]thiophene-2-carboxylic acid 5-{1-[2-hydroxy-3-(1-oxo-2,8-diaza-spiro[4.5]dec-8-yl)-propyl]-5-methanesulfonyl-4,5,6,7-tetrahydro-1H-pyrazolo[4,3-c]pyridin-3-yl}-2-trifluoromethyl-benzylamide], the pIC50 is 6.57.

Regarding `CS(=O)(=O)N1CCc2c(c(-c3ccc(C(F)(F)F)c(CNC(=O)c4ccc(F)cc4)c3)nn2CC(O)CN2CCC(CCO)CC2)C1` (centres unmarked) [Example 91, 4-Fluoro-N-[5-(1-{2-hydroxy-3-[4-(2-hydroxy-ethyl)-piperidin-1-yl]-propyl}-5-methanesulfonyl-4,5,6,7-tetrahydro-1H-pyrazolo[4,3-c]pyridin-3-yl)-2-trifluoromethyl-benzyl]-benzamide], the pIC50 is 6.80.

As for `CC(C)(C)OC(=O)NC1CCN(CC(O)Cn2nc(-c3ccc(C(F)(F)F)c(CNC(=O)c4ccc(F)cc4)c3)c3c2CCN(S(C)(=O)=O)C3)CC1` (centres unmarked) [Example 102], the pIC50 is 7.52.

Regarding `CS(=O)(=O)N1CCc2c(c(-c3ccc(C(F)(F)F)c(CNC(=O)c4ccc(F)cc4)c3)nn2CC(O)CN2CC[C@H](CO)C2)C1` (stereo partly drawn) [Example 94, (S)-4-Fluoro-N-(5-{1-[2-hydroxy-3-(3-hydroxymethyl-pyrrolidin-1-yl)-propyl]-5-methanesulfonyl-4,5,6,7-tetrahydro-1H-pyrazolo[4,3-c]pyridin-3-yl}-2-trifluoromethyl-benzyl)-benzamide], the pIC50 was 6.74.

As for `CS(=O)(=O)N1CCc2c(c(-c3ccc(C(F)(F)F)c(CNC(=O)c4ccc(C(F)(F)F)cc4)c3)nn2CC(O)CN2CCCC2)C1` (centres unmarked) [Example 225, N-{5-[1-(2-Hydroxy-3-pyrrolidin-1-yl-propyl)-5-methanesulfonyl-4,5,6,7-tetrahydro-1H-pyrazolo[4,3-c]pyridin-3-yl]-2-trifluoromethyl-benzyl]-4-trifluoromethyl-benzamide], the pIC50 is 6.12.

Consider `CN(C)C1CCN(CC(O)Cn2nc(-c3ccc(Cl)c(CNC(=O)c4ccc(F)cc4)c3)c3c2CCN(S(C)(=O)=O)C3)CC1` (centres unmarked) [Example 85, N-(2-Chloro-5-{1-[3-(4-dimethylamino-piperidin-1-yl)-2-hydroxy-propyl]-5-methanesulfonyl-4,5,6,7-tetrahydro-1H-pyrazolo[4,3-c]pyridin-3-yl}-benzyl)-4-fluoro-benzamide], for which the negative-log IC50 (pIC50) was 6.35.

With `CS(=O)(=O)N1CCc2c(c(-c3ccc(Cl)c(CNC(=O)c4cccs4)c3)nn2CCCN2CCCC2)C1` [Example 241, Thiophene-2-carboxylic acid 2-chloro-5-[5-methanesulfonyl-1-(3-pyrrolidin-1-yl-propyl)-4,5,6,7-tetrahydro-1H-pyrazolo[4,3-c]pyridin-3-yl]-benzylamide], the pIC50 is 6.01.

For `CS(=O)(=O)N1CCc2c(c(-c3ccc(Cl)c(CNC(=O)c4ccc(F)cc4)c3)nn2CC(O)CN2CCC(F)(F)CC2)C1` (centres unmarked) [Example 10, N-(2-Chloro-5-{1-[3-(4,4-difluoro-piperidin-1-yl)-2-hydroxy-propyl]-5-methanesulfonyl-4,5,6,7-tetrahydro-1H-pyrazolo[4,3-c]pyridin-3-yl}-benzyl)-4-fluoro-benzamide], the pIC50 was 7.05.

In the case of `CS(=O)(=O)N1CCc2c(c(-c3ccc(C(F)(F)F)c(CNC(=O)c4ccc(F)cc4)c3)nn2CC(O)CN2CCS(=O)(=O)CC2)C1` (centres unmarked) [Example 169, N-(5-{1-[3-(1,1-Dioxo-1λ^6-thiomorpholin-4-yl)-2-hydroxy-propyl]-5-methanesulfonyl-4,5,6,7-tetrahydro-1H-pyrazolo[4,3-c]pyridin-3-yl}-2-trifluoromethyl-benzyl)-4-fluoro-benzamide], the pIC50 was 6.26.

`CS(=O)(=O)N1CCc2c(c(-c3ccc(C(F)(F)F)c(CNC(=O)c4ccccc4F)c3)nn2CC(O)CN2CCCC2)C1` (centres unmarked) [Example 161, 2-Fluoro-N-{5-[1-(2-hydroxy-3-pyrrolidin-1-yl-propyl)-5-methanesulfonyl-4,5,6,7-tetrahydro-1H-pyrazolo[4,3-c]pyridin-3-yl]-2-trifluoromethyl-benzyl}-benzamide]: the pIC50 was 6.43.

Turning to `CS(=O)(=O)N1CCc2c(c(-c3ccc(C(F)(F)F)c(CNC(=O)c4ccc(F)cc4)c3)nn2CCCN2CCC3(CCNC3=O)CC2)C1` [Example 41, 4-Fluoro-N-(5-{5-methanesulfonyl-1-[3-(1-oxo-2,8-diaza-spiro[4.5]dec-8-yl)-propyl]-4,5,6,7-tetrahydro-1H-pyrazolo[4,3-c]pyridin-3-yl}-2-trifluoromethyl-benzyl)-benzamide], the pIC50 is 7.40.

For the compound `CS(=O)(=O)N1CCc2c(c(-c3ccc(C(F)(F)F)c(CNS(=O)(=O)Cc4ccccc4)c3)nn2CCCN2CCC3(CCNC3=O)CC2)C1` [Example 67, N-(5-{5-Methanesulfonyl-1-[3-(1-oxo-2,8-diaza-spiro[4.5]dec-8-yl)-propyl]-4,5,6,7-tetrahydro-1H-pyrazolo[4,3-c]pyridin-3-yl}-2-trifluoromethyl-benzyl)-C-phenyl-methanesulfonamide], the pIC50 is 5.66.

Turning to `CS(=O)(=O)N1CCc2c(c(-c3ccc(C(F)(F)F)c(CNC(=O)c4ccc(F)cc4)c3)nn2CC(O)CN2CCCC2)C1` (centres unmarked) [Example 57, 4-Fluoro-N-{5-[1-(2-hydroxy-3-pyrrolidin-1-yl-propyl)-5-methanesulfonyl-4,5,6,7-tetrahydro-1H-pyrazolo[4,3-c]pyridin-3-yl]-2-trifluoromethyl-benzyl}-benzamide], the pIC50 is 6.80.

For the compound `CS(=O)(=O)N1CCc2c(c(-c3ccc(C(F)(F)F)c(CNC(=O)c4ccc(F)cc4)c3)nn2CC(O)CN2CCN(CCO)CC2)C1` (centres unmarked) [Example 98, 4-Fluoro-N-[5-(1-{2-hydroxy-3-[4-(2-hydroxy-ethyl)-piperazin-1-yl]-propyl}-5-methanesulfonyl-4,5,6,7-tetrahydro-1H-pyrazolo[4,3-c]pyridin-3-yl)-2-trifluoromethyl-benzyl]-benzamide], the pIC50 was 6.55.

On to `CS(=O)(=O)N1CCc2c(c(-c3ccc(C(F)(F)F)c(CNC(=O)c4ccc(F)cc4)c3)nn2CCCN2CCC(O)C2)C1` (centres unmarked) [Example 40, 4-Fluoro-N-(5-{1-[3-(3-hydroxy-pyrrolidin-1-yl)-propyl]-5-methanesulfonyl-4,5,6,7-tetrahydro-1H-pyrazolo[4,3-c]pyridin-3-yl}-2-trifluoromethyl-benzyl)-benzamide], for which the pIC50 was 7.05.

In the case of `CS(=O)(=O)N1CCc2c(c(-c3ccc(Cl)c(CNC(=O)c4ccncc4)c3)nn2CCCN2CCCC2)C1` [Example 235, N-{2-Chloro-5-[5-methanesulfonyl-1-(3-pyrrolidin-1-yl-propyl)-4,5,6,7-tetrahydro-1H-pyrazolo[4,3-c]pyridin-3-yl]-benzyl}-isonicotinamide], the pIC50 was 6.05.

The record behind these values is patent US20090118274A1, “MONOCYCLIC AMINOPROPYL TETRAHYDRO-PYRAZOLO-PYRIDINE MODULATORS OF CATHEPSIN S” (priority 2007, published 2009).
